Key:
peas = assay: Pea seed treatment, greenhouse plant fresh weight, Colby; type: in vivo; conditions: 12 days at 20° C., pyraclostrobin 5 g/100 kg seed, SERENADE MAX 173 g/100 kg seed
Protocol: The active compounds were used applying commercially available formulations and diluted according to the concentrations/dose rates as stated in the respective data tables.
Seed treatment was done to seeds of peas using the Hege Seed Treatment equipment in a sequential approach. Pyraclostrobin was applied with a volume of 850 mL slurry per 100 kg seeds. Afterwards the stated amount of SERENADE® MAX was dissolved in a total volume of 8.3 L water (amount for 100 kg seeds) and applied sequentially in ten steps with drying of the seeds in between. The compounds were used as commercial finished formulations and diluted with water to the stated concentration of the active compound.
Seeds of peas were sown in soil (10 seeds/pot, 10 replications/treatment) and incubated in the greenhouse at 20° C. for 12 days. Plants were harvested and pooled per treatment and the plant fresh weight was determined.
The expected plant fresh weights of active compound mixtures were determined using Colby's formula as defined above [R. S. Colby, “Calculating Synergistic and Antagonistic Responses of Herbicide Combinations,” Weeds 15, 20-22 (1967)] and compared with the observed plant fresh weights.

[1] = system: maize plants (variety Burrus 616XLR); assay: Maize field trial Carlyle, Ill.: grain yield, Colby; type: in vivo
Text: Maize was planted in 2009 at Carlyle, Ill., U.S.A. The variety Burrus 616XLR was planted at a conventional seeding rate and a row spacing of 76 cm. The trial was setup as a randomized bloc design with six replications. Plot size was 18 m^2. Pyraclostrobin was applied at developmental stage 34/37 (BBCH). Bacillus subtilis QST 713 (SERENADE® MAX) was applied to the maize plants at developmental stage 34/37 (BBCH) followed by a second application at developmental stage 55/57 (BBCH). Bacillus subtilis QST 713 (SERENADE® MAX) in combination with pyraclostrobin were applied as a tank mix at the developmental stage 34/37 (BBCH). The active ingredients were applied using commercial formulations SERENADE® MAX (14.3%, WP with 7.3×10^9 cfu/g) and HEADLINE® (250 g/L, EC). Total spray volume for foliar applications was 200 L/ha. […] At maturity the crop was harvested and grain yield was measured as t/ha (Table 10).
The expected yield increase by the combination of the active compounds was estimated using Colby's formula (Colby, S. R., “Calculating Synergistic and Antagonistic Responses of Herbicide Combinations,” Weeds, 15, pp. 20-22, 1967) and compared with the observed yield increase. […]

COC(=O)N(OC)c1ccccc1COc1ccn(-c2ccc(Cl)cc2)n1 [Pyraclostrobin, pyraclostrobin]
Fresh Weight (peas): 47 g
Grain Yield (t/ha) ([1]; maize, pyraclostrobin 0.44 L/ha solo (0.3 L/ha in mix) at BBCH 34/37, SERENADE MAX 3.0 kg/ha at 34/37 (solo also 55/57)): 8.32 t/ha
Observed Yield Increase (t/ha) ([1]; vs untreated, same treatments): 0.05 t/ha
